From patent US20120122840A1, “COMPOUNDS AND THERAPEUTIC USES THEREOF” (Myrexis, Inc., priority 2009, published 2012)
Values belong to the molecule of their own block, whether it stands above or below them.

Legend:
Type in all cases: cell-based
A549 cells = assay: Image analysis of chromosome segregation; conditions: 10 μM, 24 hours
Description: (§1) Image analysis: Cells were fixed and stained with Hoechst dye and anti-(3-tubulin, anti-pericentrin and anti-centromere antibodies. Images were taken on a BD Pathway high content imaging system. For cell cycle analysis, cells were fixed, stained with propidium iodide and analyzed by FACS. For Western blot analysis, cell lysates were run on SDS-polyacrylamide gels and proteins were transferred to PVDF membrane. Membranes were probed with the indicated antibodies.
Cells were stained with Hoechst dye (blue) and anti-tubulin (green), anti-pericentrin (red) and anti-centromere (white) antibodies.

HCT-116 cells = assay: Cell cycle analysis by FACS (propidium iodide); conditions: 1 μM, 24, 48 or 72 hours
Description: as §1
Cells were fixed, stained with propidium iodide and analyzed by fluorescence activated cell sorting (FACS) using a FACScan instrument.

p53 pathway = assay: Western blot of p53 and p21 in HCT-116 cells
Description: as §1
(§2) Western blot analyses: Cells were lysed in 10 mM Tris-HCl pH 7.5, 1 mM EDTA, 150 mM NaCl, 10% glycerol, protease inhibitor cocktail, phosphatase 1, and phosphatase 2. Protein yields were determined by Bradford assay and equivalent amounts of protein were loaded for each sample.
Antibodies: All antibodies were purchased from Cell Signaling Technology.
Cell lysates were analyzed by Western blot with anti-p53, anti-p21 or anti-β-actin antibodies (see FIG. 4A).
(§3) p53 was previously reported to suppress the expression of survivin. […] Cell lysates were analyzed by Western blot with anti-p53, anti-survivin or anti-β-actin antibodies (see FIG. 4C). […] Induction of p53 preceded the loss of survivin.

p21 mRNA = assay: qRT-PCR of p21 mRNA in HCT-116 cells; conditions: 1 μM, time course, relative to 7 hour DMSO control
Description: For qRT-PCR: Primer probe sets for p21 and GAPDH were purchased from Applied Biosystems. qRT-PCR was performed using the Quantitect Probe RT-PCR Kit from Qiagen following the standard protocol.
The p21 mRNA levels were normalized to the GAPDH mRNA levels from the same total RNA sample.

survivin = assay: Western blot of survivin in HCT-116 cells; conditions: increasing concentrations, 48 hours
Description: as §2, §3

p53 = assay: Western blot with phosphospecific anti-p53 antibodies in HCT-116 cells; conditions: 1 μM, 48 hours
Description: as §2
Phosphorylation of p53 at various sites on the N-terminus results in the stabilization of p53. […] Cell lysates were analyzed by Western blot with anti-GAPDH, anti-p53 or the phosphospecific anti-p53 antibodies.

histone H2AX = assay: Western blot of H2AX-pS139 in HCT-116 cells; conditions: 1 μM, 7, 24, 36 or 48 hours
Description: as §2
Phosphorylation and stabilization of p53 occurs in response to DNA damage. Phosphorylation of H2AX functions to recruit DNA repair enzymes to sites of DNA damage and serves as a marker for DNA double strand breaks. […] Cell lysates were analyzed by Western blot with anti-H2AX-pS139 (gH2AX) or β-actin antibodies. […] Inhibition of TTK induces the phosphorylation of p53 on serine 15 and H2AX on serine 139.

786-0 = assay: CellTiter Glo cell viability, 7 days; conditions: Homo sapiens, 168 h, kidney, read-out: 7 day IC50
Description: (§4) The compounds of the present invention were tested against a panel of cancer cells to determine the effect on cell viability. Viability was determined by measuring cellular ATP levels using CellTiter Glo reagent (Promega, Madison, Wis.).
(§5) MATERIALS: • A. Cancer cell lines obtained from ATCC or DSMZ • B. RPMI supplemented with 10% FBS/L-glutamine/NEAA/HEPES/Na-Pyruvate • C. DMEM supplemented with 10% FBS and L-glutamine. • B. Compounds, typically 50 mM stocks diluted in DMSO; • C. Clear, flat, TC-surface bottomed 96-well microplates (Corning #3595) • D. CellTiter-Glo® Luminescent Cell Viability Assay (Promega #G7573)
(§6) METHODS: • 1. Cells were plated at densities of 2000-5000 cells per well in 100 μl volume on a 96-well plate, and were incubated overnight. • 2. Test compound(s) were serially diluted to the desired 250× concentration. • 3. For each concentration of compound to be tested, 0.4 μl of 250× compound was added in triplicate to the cell plates. Plates were then incubated at 37° C. for 7 days. • 4. 100 μL of prepared CellTiter Glo reagent was added to treated cells, and plates were gently mixed for 2 minutes, and equilibrated for 10 minutes at room temperature. • 5. Luminescence was measured and the viability of treated cells relative to DMSO control was calculated.
(§7) Cancer cell lines were treated with TTK inhibitor for 7 days and cell viability was measured using the CellTiter Glo assay (Promega, Madison, Wis.).

BT-474 = assay: CellTiter Glo cell viability, 7 days; conditions: Homo sapiens, 168 h, breast, read-out: 7 day IC50
Description: as §4, §5, §6, §7

BxPC-3 = assay: CellTiter Glo cell viability, 7 days; conditions: Homo sapiens, 168 h, pancreas, read-out: 7 day IC50
Description: as §4, §5, §6, §7

Colo-205 = assay: CellTiter Glo cell viability, 7 days; conditions: Homo sapiens, 168 h, colon, read-out: 7 day IC50
Description: as §4, §5, §6, §7

DMS-114 = assay: CellTiter Glo cell viability, 7 days; conditions: Homo sapiens, 168 h, lung, read-out: 7 day IC50
Description: as §4, §5, §6, §7

DU-145 = assay: CellTiter Glo cell viability, 7 days; conditions: Homo sapiens, 168 h, prostate, read-out: 7 day IC50
Description: as §4, §5, §6, §7

DU4475 = assay: CellTiter Glo cell viability, 7 days; conditions: Homo sapiens, DU-4475, 168 h, breast, read-out: 7 day IC50
Description: as §4, §5, §6, §7

HCC827 = assay: CellTiter Glo cell viability, 7 days; conditions: Homo sapiens, 168 h, lung, read-out: 7 day IC50
Description: as §4, §5, §6, §7

HCT-15 = assay: CellTiter Glo cell viability, 7 days; conditions: Homo sapiens, 168 h, colon, read-out: 7 day IC50
Description: as §4, §5, §6, §7

IGR-OV1 = assay: CellTiter Glo cell viability, 7 days; conditions: Homo sapiens, IGROV-1, 168 h, ovarian, read-out: 7 day IC50
Description: as §4, §5, §6, §7

KARPAS-299 = assay: CellTiter Glo cell viability, 7 days; conditions: Homo sapiens, 168 h, blood, read-out: 7 day IC50
Description: as §4, §5, §6, §7

MCF-7 = assay: CellTiter Glo cell viability, 7 days; conditions: Homo sapiens, MCF7, 168 h, breast, read-out: 7 day IC50
Description: as §4, §5, §6, §7

MDA-MB-231 = assay: CellTiter Glo cell viability, 7 days; conditions: Homo sapiens, 168 h, breast, read-out: 7 day IC50
Description: as §4, §5, §6, §7

MDA-MB-436 = assay: CellTiter Glo cell viability, 7 days; conditions: Homo sapiens, 168 h, breast, read-out: 7 day IC50
Description: as §4, §5, §6, §7

NCI-N87 = assay: CellTiter Glo cell viability, 7 days; conditions: Homo sapiens, 168 h, gastric, read-out: 7 day IC50
Description: as §4, §5, §6, §7

OPM-2 = assay: CellTiter Glo cell viability, 7 days; conditions: Homo sapiens, 168 h, blood, read-out: 7 day IC50
Description: as §4, §5, §6, §7

OVCAR-3 = assay: CellTiter Glo cell viability, 7 days; conditions: Homo sapiens, 168 h, ovarian, read-out: 7 day IC50
Description: as §4, §5, §6, §7

OVCAR-5 = assay: CellTiter Glo cell viability, 7 days; conditions: Homo sapiens, 168 h, ovarian, read-out: 7 day IC50
Description: as §4, §5, §6, §7

PANC1 = assay: CellTiter Glo cell viability, 7 days; conditions: Homo sapiens, PANC-1, 168 h, pancreas, read-out: 7 day IC50
Description: as §4, §5, §6, §7

PC-3 = assay: CellTiter Glo cell viability, 7 days; conditions: Homo sapiens, 168 h, prostate, read-out: 7 day IC50
Description: as §4, §5, §6, §7

SK-BR-3 = assay: CellTiter Glo cell viability, 7 days; conditions: Homo sapiens, 168 h, breast, read-out: 7 day IC50
Description: as §4, §5, §6, §7

SW-480 = assay: CellTiter Glo cell viability, 7 days; conditions: Homo sapiens, SW480, 168 h, colon, read-out: 7 day IC50
Description: as §4, §5, §6, §7

U-87MG = assay: CellTiter Glo cell viability, 7 days; conditions: Homo sapiens, 168 h, CNS, read-out: 7 day IC50
Description: as §4, §5, §6, §7

ZR-75-1 = assay: CellTiter Glo cell viability, 7 days; conditions: Homo sapiens, 168 h, breast, read-out: 7 day IC50
Description: as §4, §5, §6, §7

SMILES: Cc1cc(N2CCOCC2)ccc1Nc1nc(NC2CCCCC2)c2nc[nH]c2n1 [Compound A, N6-cyclohexyl-N2-(2-methyl-4-morpholino-phenyl)-9H-purine-2,6-diamine]
chromosome segregation (A549 cells): causes chromosome segregation defects
DNA content (ploidy) (HCT-116 cells): both aneuploidy, as seen in FIG. 3 by a broadening of the 2N and 4N peaks, as well as the formation of tetraploid (8N) cells
time of maximal induction of the p53 pathway (p53 pathway; 1 μM): ≤ 36 h
p53 pathway activation (p53, p21 protein) (p53 pathway; 1 μM, time course): activate the p53 pathway in a time- and dose-dependent manner
p53 protein induction (p53 pathway; increasing concentrations, 48 hours): induced p53 in a dose- and time-dependent manner
p21 mRNA normalized to GAPDH mRNA (p21 mRNA): induced in a time-dependent manner
survivin protein (survivin): decrease in survivin protein
site of p53 phosphorylation (p53): phosphorylated on serine 15
phosphorylation of serine 139 on H2AX (histone H2AX): induced by Compound A in a time-dependent manner

IC50 (786-0): 1200 nM
IC50 (BT-474): > 30000 nM
IC50 (BxPC-3): 120 nM
IC50 (Colo-205): 90 nM
IC50 (DU-145): 370 nM
IC50 (HCC827): 94 nM
IC50 (HCT-15): 280 nM
IC50 (KARPAS-299): 96 nM
IC50 (MCF-7): 61 nM
IC50 (MDA-MB-231): 28000 nM
IC50 (MDA-MB-436): 8700 nM
IC50 (OVCAR-3): 150 nM
IC50 (OVCAR-5): 150 nM
IC50 (PANC1): 3700 nM
IC50 (PC-3): 200 nM
IC50 (SK-BR-3): 56 nM
IC50 (SW-480): 140 nM
IC50 (U-87MG): 670 nM
SMILES: Cc1cc(N2CCOCC2)ccc1Nc1nc(NC2CCCCC2)c2nc[nH]c2n1 [N6-cyclohexyl-N2-(2-methyl-4-morpholino-phenyl)-9H-purine-2,6-diamine]
IC50 (DMS-114): 180 nM
IC50 (DU4475): 72 nM
IC50 (IGR-OV1): 580 nM
IC50 (NCI-N87): 2100 nM
IC50 (OPM-2): 99 nM
IC50 (ZR-75-1): 56 nM
